# Laboratory results published in PubChem BioAssay AID270 (DTP/NCI, 2004).
# “And” between values parts separate entries of the source, which are not always exact repeats. Equal values may be shown once. Records with an inconclusive call do not appear.
# System: BDF1 mice, s.c. Lewis lung carcinoma, T/C %
# Experiment: NCI In Vivo Anticancer Drug Screen. Data for tumor model Lewis Lung Carcinoma (subcutaneous) in B6D2F1 (BDF1) mice
# Outline: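 Transplanted tumors grown in mice; compound vs vehicle dosing; endpoint survival or tumor size; ratio T/C.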
# [1] = endpoint: mean tumor weight, dose: 125.0 mg/kg/injection, schedule: Q01DX011 (ip), vehicle: saline, higher = larger tumour
structure (smiles),measurement,setting,value
NCCCNCCSP(=O)(O)O,T/C,"endpoint: median survival time, dose: 300.0 mg/kg/injection, schedule: Q01DX001 (ip), vehicle: saline, higher = longer survival",93 % of control and 100 % of control
same,T/C,"endpoint: median survival time, dose: 500.0 mg/kg/injection, schedule: Q01DX001 (ip), vehicle: saline, higher = longer survival",77 % of control and 78 % of control
N[C@H](C(=O)O)[C@@H]1CC(Cl)=NO1,T/C,"endpoint: median survival time, dose: 2.5 mg/kg/injection, schedule: Q01DX005 (ip), vehicle: saline, higher = longer survival",92 % of control
same,T/C,"endpoint: median survival time, dose: 5.0 mg/kg/injection, schedule: Q01DX005 (ip), vehicle: saline, higher = longer survival",67 % of control
same,T/C,"endpoint: median survival time, dose: 10.0 mg/kg/injection, schedule: Q01DX005 (ip), vehicle: saline, higher = longer survival",111 % of control
same,T/C,"endpoint: median survival time, dose: 20.0 mg/kg/injection, schedule: Q01DX005 (ip), vehicle: saline, higher = longer survival",62 % of control
same,T/C,"endpoint: median survival time, dose: 25.9 mg/kg/injection, schedule: Q04DX002 (ip), vehicle: saline, higher = longer survival",114 % of control and 121 % of control
same,T/C,"endpoint: median survival time, dose: 43.2 mg/kg/injection, schedule: Q04DX002 (ip), vehicle: saline, higher = longer survival",111 % of control and 112 % of control
same,T/C,"endpoint: median survival time, dose: 72.0 mg/kg/injection, schedule: Q04DX002 (ip), vehicle: saline, higher = longer survival",106 % of control and 107 % of control
same,T/C,"endpoint: median survival time, dose: 200.0 mg/kg/injection, schedule: Q04DX002 (ip), vehicle: saline, higher = longer survival",100 % of control and 102 % of control
same,T/C,"endpoint: median survival time, dose: 2.5 ml/mouse/injection, schedule: Q01DX005 (ip), vehicle: saline, higher = longer survival",92 % of control
same,T/C,"endpoint: median survival time, dose: 5.0 ml/mouse/injection, schedule: Q01DX005 (ip), vehicle: saline, higher = longer survival",68 % of control
same,T/C,"endpoint: median survival time, dose: 10.0 ml/mouse/injection, schedule: Q01DX005 (ip), vehicle: saline, higher = longer survival",108 % of control
O=c1[nH]cnc2nc[nH]c12,T/C,"endpoint: mean tumor weight, dose: 62.5 mg/kg/injection, schedule: Q01DX011 (ip), vehicle: saline, higher = larger tumour",121 % of control
same,T/C,[1],108 % of control
same,T/C,"endpoint: mean tumor weight, dose: 250.0 mg/kg/injection, schedule: Q01DX011 (ip), vehicle: saline, higher = larger tumour",107 % of control
same,T/C,"endpoint: mean tumor weight, dose: 500.0 mg/kg/injection, schedule: Q01DX011 (ip), vehicle: saline, higher = larger tumour",76 % of control
O=C(O)CC(NC(=O)CP(=O)(O)O)C(=O)O.[NH-]C1CCCCC1[NH-].[Pt+2] (stereo not given),T/C,"endpoint: median survival time, dose: 2.0 mg/kg/injection, schedule: Q01DX009 (ip), vehicle: other, higher = longer survival",90 % of control
same,T/C,"endpoint: median survival time, dose: 4.0 mg/kg/injection, schedule: Q01DX009 (ip), vehicle: other, higher = longer survival",92 % of control
same,T/C,"endpoint: median survival time, dose: 6.0 mg/kg/injection, schedule: Q01DX009 (ip), vehicle: other, higher = longer survival",95 % of control
same,T/C,"endpoint: median survival time, dose: 6.0 mg/kg/injection, schedule: Q04DX003 (ip), vehicle: other, higher = longer survival",102 % of control
same,T/C,"endpoint: median survival time, dose: 8.0 mg/kg/injection, schedule: Q01DX009 (ip), vehicle: other, higher = longer survival",96 % of control
same,T/C,"endpoint: median survival time, dose: 12.0 mg/kg/injection, schedule: Q04DX003 (ip), vehicle: other, higher = longer survival",100 % of control
same,T/C,"endpoint: median survival time, dose: 18.0 mg/kg/injection, schedule: Q04DX003 (ip), vehicle: other, higher = longer survival",88 % of control
same,T/C,"endpoint: median survival time, dose: 24.0 mg/kg/injection, schedule: Q04DX003 (ip), vehicle: other, higher = longer survival",102 % of control
CC1CN1P(=S)(N1CC1C)N1CC1C (stereo not given),T/C,"endpoint: mean tumor weight, dose: 9.0 mg/kg/injection, schedule: Q01DX011 (ip), vehicle: carboxymethylcellulose (CMC), higher = larger tumour",87 % of control
same,T/C,"endpoint: mean tumor weight, dose: 17.5 mg/kg/injection, schedule: Q01DX011 (ip), vehicle: carboxymethylcellulose (CMC), higher = larger tumour",72 % of control
same,T/C,"endpoint: mean tumor weight, dose: 53.0 mg/kg/injection, schedule: Q01DX011 (ip), vehicle: carboxymethylcellulose (CMC), higher = larger tumour",23 % of control
CCN(CC)C(=S)S,T/C,[1],86 % of control
same,T/C,"endpoint: median survival time, dose: 125.0 mg/kg/injection, schedule: Q01DX011 (ip), vehicle: saline, higher = longer survival",123 % of control and 124 % of control
same,T/C,"endpoint: median survival time, dose: 250.0 mg/kg/injection, schedule: Q01DX011 (ip), vehicle: saline, higher = longer survival",112 % of control and 116 % of control
same,T/C,"endpoint: median survival time, dose: 500.0 mg/kg/injection, schedule: Q01DX011 (ip), vehicle: saline, higher = longer survival",104 % of control and 105 % of control
same,T/C,"endpoint: median survival time, dose: 1000.0 mg/kg/injection, schedule: Q01DX011 (ip), vehicle: saline, higher = longer survival",102 % of control and 105 % of control
C1CC[N-]CC1.C1CC[N-]CC1.C1CC[N-]CC1.C1CC[N-]CC1.[Cl][Co][Cl],T/C,"endpoint: mean tumor weight, dose: 15.0 mg/kg/injection, schedule: Q01DX011 (ip), vehicle: other, higher = larger tumour",63 % of control
same,T/C,"endpoint: mean tumor weight, dose: 30.0 mg/kg/injection, schedule: Q01DX011 (ip), vehicle: other, higher = larger tumour",68 % of control
same,T/C,"endpoint: mean tumor weight, dose: 60.0 mg/kg/injection, schedule: Q01DX011 (ip), vehicle: other, higher = larger tumour",56 % of control
same,T/C,"endpoint: median survival time, dose: 2.5 mg/kg/injection, schedule: Q01DX009 (ip), vehicle: saline, higher = longer survival",94 % of control
same,T/C,"endpoint: median survival time, dose: 10.0 mg/kg/injection, schedule: Q01DX009 (ip), vehicle: saline, higher = longer survival",105 % of control
same,T/C,"endpoint: median survival time, dose: 20.0 mg/kg/injection, schedule: Q01DX009 (ip), vehicle: saline, higher = longer survival",95 % of control
same,T/C,"endpoint: median survival time, dose: 40.0 mg/kg/injection, schedule: Q01DX009 (ip), vehicle: saline, higher = longer survival",93 % of control
